Reference: patent publication US20240391862A1, “(1,4,5-TRISUBSTITUTED-1H-PYRAZOL-3-YL)OXY-2-ALKOXY ALKYL ACIDS AND THEIR DERIVATIVES, THEIR SALTS AND THEIR USE AS HERBICIDAL AGENTS” (Bayer AKtiengesellschaft, priority 2021, published 2024)

How the values were obtained:
[1] = tested on: GLXMA; test: Pre-emergence herbicidal effect and crop plant compatibility, greenhouse pot test; assay type: in vivo, Glycine max; details: 80 g/ha, scored visually after about 3 weeks vs untreated controls
From the text: (§1) Seeds of monocotyledonous and dicotyledonous weed plants and crop plants are placed in plastic or organic planting pots and covered with soil. The compounds of the invention, formulated in the form of wettable powders (WP) or as emulsion concentrates (EC), are then applied to the surface of the covering soil as aqueous suspension or emulsion with addition of 0.5% additive at a water application rate equivalent to 600 l/ha. After the treatment, the pots are placed in a greenhouse and kept under good growth conditions for the trial plants. After about 3 weeks, the effect of the preparations is scored visually in comparison with untreated controls as percentages. For example, 100% activity=the plants have died, 0% activity=like control plants.
(§2) Tables 1a to 19c below show the effects/crop compatibilities of selected compounds of the general formula (I) on various harmful plants at an application rate corresponding to 20 to 320 g/ha, which were obtained by the trial procedure specified above.
(§3) • ALOMY: Alopecurus myosuroides SETVI: Setaria viridis • AVEFA: Avena fatua POLCO: Fallopia convolvulus • AMARE: Amaranthus retroflexus ECHCG: Echinochloa crus-galli • LOLRJ: Lolium rigidum STEME: Stellaria media • VERPE: Veronica persica MATIN: Tripleurospermum inodorum • DIGSA: Digitaria sanguinalis ABUTH: Abutylon threophrasti • TRZAS: Triticum aestivum VIOTR: Viola tricolor • BRSNW: Brassica napus ZEAMX: Zea mays • PHBPU: Ipomoea purpurea GLXMA: Glycine max • ORYSA: Oryza sativa HORMU: Hordeum murinum

[2] = tested on: VERPE; test: Pre-emergence herbicidal effect, greenhouse pot test; assay type: in vivo, Veronica persica; details: scored visually after about 3 weeks vs untreated controls
From the text: as §1, §2, §3

[3] = tested on: POLCO; test: Post-emergence herbicidal effect, greenhouse pot test; assay type: in vivo, Fallopia convolvulus; details: Fallopia convolvulus, 504 h, read-out: Post-emergence effect against POLCO in %
Method in brief: (§4)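 Visual % activity scored roughly 3 weeks post-spray against untreated plants, where 100% means death and 0% equals control. Plants were treated at the one-leaf stage, 2 to 3 weeks after sowing in sandy loam, at 20 to 320 g/ha.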

[4] = tested on: various unwanted plants; test: Pre-emergence effect against various unwanted plants (PE): comparative test of I-01 with compounds from WO2020/245044 (Tables 40a, 40b) and summary statements; assay type: in vivo
From the text: Seeds of monocotyledonous and dicotyledonous weed plants and crop plants are placed in plastic or organic planting pots and covered with soil. The compounds of the invention, formulated in the form of wettable powders (WP) or as emulsion concentrates (EC), are then applied to the surface of the covering soil as aqueous suspension or emulsion with addition of 0.5% additive at a water application rate equivalent to 600 l/ha. After the treatment, the pots are placed in a greenhouse and kept under good growth conditions for the trial plants. After about 3 weeks, the effect of the preparations is scored visually in comparison with untreated controls as percentages. For example, 100% activity=the plants have died, 0% activity=like control plants. Tables 40a and 40b below show the effects of the inventive compound (I-01) with structurally similar compounds (from WO2020/245044) on various harmful plants at an application rate corresponding to 320 g/ha or less, which have been obtained by the trial procedure specified hereinafter. The inventive compound (I-01) differs here by variance of a significant structural feature from the structurally similar compound with regard to the R^2 radical. Seeds of monocotyledonous and dicotyledonous weed plants and crop plants are placed in plastic or organic planting pots and covered with soil. The compounds of the invention, formulated in the form of wettable powders (WP) or as emulsion concentrates (EC), are then applied to the surface of the covering soil as aqueous suspension or emulsion with addition of 0.5% additive at a water application rate equivalent to 600 l/ha. After the treatment, the pots are placed in a greenhouse and kept under good growth conditions for the trial plants. After about 3 weeks, the effect of the preparations is scored visually in comparison with untreated controls as percentages. For example, 100% activity=the plants have died, 0% activity=like control plants. Effects/crop compatibilities of selected compounds (Table 39) on various harmful plants at an application rate corresponding to 80 to 320 g/ha that have been obtained by the trial procedure specified hereinabove are shown in Tables 40a and 40b below.

[5] = tested on: ABUTH; test: Pre-emergence herbicidal effect, greenhouse pot test; assay type: in vivo, Abutilon theophrasti; details: 320 g/ha, scored visually after about 3 weeks vs untreated controls
From the text: as §1, §2, §3

[6] = tested on: AVEFA; test: as above; assay type: in vivo, Avena fatua; details: 320 g/ha, scored visually after about 3 weeks vs untreated controls
From the text: as §1, §2, §3

[7] = tested on: PHBPU; test: as above; assay type: in vivo, Ipomoea purpurea; details: scored visually after about 3 weeks vs untreated controls
From the text: as §1, §2, §3

[8] = tested on: VIOTR; test: as above; assay type: in vivo, Viola tricolor; details: scored visually after about 3 weeks vs untreated controls
From the text: as §1, §2, §3

[9] = tested on: ZEAMX; test: Post-emergence herbicidal effect and crop plant compatibility, greenhouse pot test; assay type: in vivo, Zea mays; details: Zea mays, 504 h, 80 g/ha, one-leaf stage, rated visually after about 3 weeks vs untreated controls, read-out: Post-emergence effect at 80 g/ha against ZEAMX in %
Method in brief: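 Sandy loam pots, greenhouse. One-leaf stage (2–3 wk after sowing) foliar spray; WP/EC in water + 0.5% additive, 600 l/ha; 20–320 g/ha. Visual score ~3 wk, 0–100% vs untreated.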

[10] = tested on: DIGSA; test: Post-emergence herbicidal effect, greenhouse pot test; assay type: in vivo, Digitaria sanguinalis; details: Digitaria sanguinalis, 504 h, visual rating about 3 weeks after treatment, read-out: Post-emergence effect against DIGSA
Method in brief: as §4

Compound: CCOC(=O)C(OCC)Oc1nn(-c2ccccc2F)c(-c2ccc(F)nc2)c1Br (racemic) [Example I-01, Ethyl (2RS)-{[4-bromo-1-(2-fluorophenyl)-5-(6-fluoropyridin-3-yl)-1H-pyrazol-3-yl]oxy}(ethoxy)acetate]
- Pre-emergence effect at 80 g/ha against GLXMA in % [1]: 0%
- Pre-emergence effect at 320 g/ha against VERPE in % [2]: 80%
- pest or weed control at 80 g/ha ([3]; 80 g/ha): 80%
- pest or weed control at 320 g/ha [3]: 80%
- Pre-emergence effect, Effect %, ALOMY ([4]; ALOMY, 320 g/ha, comparative test): 90%
- Pre-emergence effect, Effect %, ECHCG ([4]; 80 g/ha, comparative test): 70%
- Pre-emergence effect, Effect %, ECHCG ([4]; 320 g/ha, comparative test): 100%
- Pre-emergence effect, Effect %, LOLRI ([4]; 80 g/ha, comparative test): 90%
- Pre-emergence effect, Effect %, LOLRI ([4]; 320 g/ha, comparative test): 100%
- Pre-emergence effect, Effect %, MATIN ([4]; 80 g/ha, comparative test): 90%
- Pre-emergence effect, Effect %, MATIN ([4]; 320 g/ha, comparative test): 90%
- Pre-emergence effect, Effect %, POLCO ([4]; POLCO, 80 g/ha, comparative test): 80%
- Pre-emergence effect, Effect %, SETVI ([4]; SETVI, 320 g/ha, comparative test): 100%
- herbicidal efficacy by comparison to the structurally similar compounds (Tables 40a and 40b) ([4]; different harmful plants, 320 g or less per hectare, vs compounds from WO2020/245044): distinctly improved herbicidal efficacy

Compound: COC(=O)C(OC)Oc1nn(-c2ccccc2F)c(-c2ccc(F)nc2)c1Br (racemic) [Example I-04, Methyl (2RS)-{[4-bromo-1-(2-fluorophenyl)-5-(6-fluoropyridin-3-yl)-1H-pyrazol-3-yl]oxy}(methoxy)acetate]
- Pre-emergence effect at 320 g/ha against ABUTH in % [5]: 80%
- Pre-emergence effect at 320 g/ha against AVEFA in % [6]: 80%
- Pre-emergence effect at 80 g/ha against PHBPU in % ([7]; 80 g/ha): 80%
- Pre-emergence effect at 320 g/ha against PHBPU in % [7]: 90%
- Pre-emergence effect at 320 g/ha against VERPE in % [2]: 90%
- Pre-emergence effect at 80 g/ha against VIOTR in % ([8]; 80 g/ha): 80%
- Pre-emergence effect at 320 g/ha against VIOTR in % [8]: 100%

Compound: COC(=O)C(OC)Oc1nn(-c2ncccc2F)c(-c2ccc(F)nc2)c1Br (centres unmarked) [Example I-05]
- Pre-emergence effect at 80 g/ha against GLXMA in % [1]: 10%
- Pre-emergence effect at 320 g/ha against AVEFA in % [6]: 90%
- Pre-emergence effect at 320 g/ha against PHBPU in % [7]: 80%
- Pre-emergence effect at 320 g/ha against VIOTR in % [8]: 100%
- plant injury at 80 g/ha [9]: 20%
- pest or weed control at 80 g/ha ([10]; 80 g/ha): 90%
- pest or weed control at 320 g/ha ([10]; 320 g/ha): 90%
- pest or weed control at 320 g/ha [3]: 80%
